“And” between values parts separate entries of the source, which are not always exact repeats. Equal entries are not always repeated.
Tests used:
U251cx43-216 cells [1] = assay: MTT cell viability assay
U251cx43-216 cells [2] = assay: Apoptosis, TUNEL assay; assay type: cell-based, human; conditions: U251cx43-216, 1 μM VP16, D2
Method: (§1) Cells (1 to 3×10^5) were seeded onto glass slides in 8-well plates overnight, and then treated with VP16 for 48 hours. Apoptotic cells were then analyzed with a TUNEL-based in situ cell death detection kit (Boehringer-Mannheim, Mannheim, Germany). Fluorescent cells were observed under a fluorescence microscope and viewed as positive cells. The experiment was repeated twice.
(§2) It was next determined whether the enhanced sensitivity to chemotherapeutic agents induced by over-expression of cx43 was associated with the increase of drug-induced apoptosis. Cells collected at various time points post-treatment with 1 μM VP16 were used for apoptosis assays. First, nuclear condensation, chromatin fragmentation and formation of apoptotic bodies were detected by Hoechst 33258 dye staining upon treatment with VP16. […] The results were further confirmed by both 1) TUNEL assay, which detects double- as well as single-stranded DNA breaks during apoptosis by labeling the free 3′-OH termini in an enzymatic reaction (terminal deoxynucleotidyl transferase), and annexin V assay, which detects the exposed phosphotidylserine during apoptosis.

U251N23 cells [3] = assay: Apoptosis, TUNEL assay; assay type: cell-based, human; conditions: U251N23, 1 μM VP16, D2
Method: as §1, §2

U251cx43-216 cells [4] = assay: Apoptosis, annexin V assay; assay type: cell-based, human
Method: (§3) Cells, treated or not VP16, were analyzed with the TACS Annexin V-FITC kit (Trevigen, Gaithersburg, Md.) according to manufacturer's instructions. Apoptosis was detected by the appearance of patches of fluorescence on the cell surface.
as §2

U251N23 cells [5] = assay: Apoptosis, annexin V assay; assay type: cell-based, human
Method: as §3, §2

U251cx43-216 cells [6] = assay: Cell-cycle distribution by FACScan; assay type: cell-based, human; conditions: U251cx43-216, VP16 1 × 10^−6 M
Method: (§4) Cell-cycle distribution was determined by flow cytometry as described previously (Huang et al., Int. J. Cancer 77:880-886 (1998)). Briefly, cells were seeded in 100 mm plates (5×10^5 per plate), incubated for 24 hours, and then treated with VP16 or vehicle. At days 1 and 2 of treatment, cells were collected, fixed in 70% ethanol and stained with propidium iodine. The DNA content of cells was then analyzed in a fluorescence cell sorter (FACSCalibur, Becton Dickinson, Mountain View, Calif.).
(§5) The possibility was assessed by treatment of the cells with VP16 for 24 and 48 hours, and cell-cycle distribution was then determined by FACScan. […] Although there was a slight decrease of S phase in cx43-transfected cells compared with control transfected cells at 24 hours after VP16 treatment, it was not statistically significant.

U251N23 cells [7] = assay: Cell-cycle distribution by FACScan; assay type: cell-based, human; conditions: U251N23, VP16 1 × 10^−6 M
Method: as §4, §5

U251cx43-217 cells [8] = assay: Cell-cycle distribution by FACScan; assay type: cell-based, human; conditions: U251cx43-217, VP16 1 × 10^−6 M
Method: as §4, §5

U251cx43-216 cells [9] = assay: Clonogenicity (cell survival) assay; assay type: cell-based, human
Method: (§6) The surviving cell fraction was determined by clonogenicity assay as previously described (Huang et al., J. Cell Biol. 133:211-220 (1996)). Cells were seeded at a density of 500 cells per 60 mm plate and incubated overnight and then treated with drugs; culture was then continued for 3 weeks. Clones were fixed in 4% formaldehyde-PBS and stained with Giemsa solution. Colonies containing more than 50 cells were counted and the fraction of surviving cells was calculated. The results represented the average of three separate experiments.
(§7) Values at OD 570 reflect the relative number of viable cells.

U251N23 cells [10] = assay: Clonogenicity (cell survival) assay; assay type: cell-based, human
Method: as §6, §7

U251N23 cells [11] = assay: Apoptosis, Hoechst dye stain; assay type: cell-based, human; conditions: U251N23, 1 μM VP16, D4
Method: The assay was performed as we previously described (Huang et al., Cell Death Differ. 5:96-106 (1998)). Briefly, cells were fixed in Carnoy's solution (methanol:glacial […]; 3:1) and stained with 5 μg/ml of bisbenzimide trihydrochloride (Hoechst 33258) for 20 min. The morphology of nuclei was then observed with a Zeiss (Thornwood, N.Y.) photomicroscope II. At least 500 nuclei in each cell line were counted. Experiments were repeated four times.
as §2

T98Gcx43-220 cells = assay: MTT cell viability assay; assay type: cell-based; conditions: Homo sapiens, 144 h, day 6 after treatment, T98Gcx43-220 (cx43-transfected)
Method: (§8) In vitro viability was determined by the 3-(4,5-dimethylthiazol-2yl)-2,5-diphenyltetrazolium bromide (MTT) colorimetric assay as described in (Huang et al., Cancer Res. 55:5054-5062 (1995)). Cells (1×10^3) were plated in triplicate in 96 well microplates overnight and treated with 5 different concentrations of VP16, Tax and DOX, respectively. […] Absorbance values at 570 nm were plotted as a measure of the relative number of cells. […] Both methods gave the identical results.
as §7

U251N23 cells [12] = assay: MTT cell viability assay; assay type: cell-based; conditions: Homo sapiens, 144 h, day 6 after treatment, U251N23 (control-transfected)
Method: as §8, §7

U251N2 cells = assay: MTT cell viability assay; assay type: cell-based; conditions: Homo sapiens, 144 h, day 6 after treatment, U251N2 (control-transfected)
Method: as §8, §7

U251cx43-217 cells [13] = assay: MTT cell viability assay; assay type: cell-based; conditions: Homo sapiens, 144 h, day 6 after treatment, U251cx43-217 (cx43-transfected)
Method: as §8, §7

T98GN28 cells = assay: MTT cell viability assay; assay type: cell-based; conditions: Homo sapiens, 144 h, day 6 after treatment, T98GN28 (control-transfected)
Method: as §8, §7

COc1cc([C@@H]2c3cc4c(cc3[C@@H](O[C@@H]3O[C@@H]5CO[C@@H](C)O[C@H]5[C@H](O)[C@H]3O)[C@H]3COC(=O)[C@H]23)OCO4)cc(OC)c1O [VP16, Etoposide]
IC50 (U251cx43-216 cells [1]; Homo sapiens, 144 h): 390 nM | level of toxicity (measured as IC50) in U251cx43-216 relative to U251N23 (U251cx43-216 cells [1]; MTT assay, higher in cx43-transfected cells): about 2 fold | Percentage of apoptotic cells, TUNNEL assay (U251cx43-216 cells [2]): 13.3 +/− 4.5% | Percentage of apoptotic cells, TUNNEL assay (U251N23 cells [3]): 1.6 +/− 2.3% | Percentage of apoptotic cells, annexin stain (U251cx43-216 cells [4]; U251cx43-216, 1 μM VP16, D2): 24.5 +/− 0.7% | Percentage of apoptotic cells, annexin stain (U251cx43-216 cells [4]; U251cx43-216, 1 μM VP16, D4): 42.0 +/− 5.6% | Percentage of apoptotic cells, annexin stain (U251N23 cells [5]; U251N23, 1 μM VP16, D2): 5.5 +/− 0.7% | Percentage of apoptotic cells, annexin stain (U251N23 cells [5]; U251N23, 1 μM VP16, D4): 11.5 +/− 2.1% | Cell cycle distribution, G1 phase (U251cx43-216 cells [6]; day 1): 10.95% | Cell cycle distribution, G2 phase (U251cx43-216 cells [6]; day 1): 80.57% | Cell cycle distribution, S phase (U251cx43-216 cells [6]; day 1): 8.48% | Cell cycle distribution, G1 phase (U251cx43-216 cells [6]; day 2): 8.44% | Cell cycle distribution, G2 phase (U251cx43-216 cells [6]; day 2): 90.81% | Cell cycle distribution, S phase (U251cx43-216 cells [6]; day 2): 0.75% | Cell cycle distribution, G1 phase (U251N23 cells [7]; day 1): 7.37% | Cell cycle distribution, G2 phase (U251N23 cells [7]; day 1): 81.49% | Cell cycle distribution, S phase (U251N23 cells [7]; day 1): 11.14% | Cell cycle distribution, G1 phase (U251N23 cells [7]; day 2): 5.78% | Cell cycle distribution, G2 phase (U251N23 cells [7]; day 2): 94.22% | Cell cycle distribution, S phase (U251N23 cells [7]; day 2): 0% | Cell cycle distribution, G1 phase (U251cx43-217 cells [8]; day 1): 12.05% | Cell cycle distribution, G2 phase (U251cx43-217 cells [8]; day 1): 77.84% | Cell cycle distribution, S phase (U251cx43-217 cells [8]; day 1): 10.11% | Cell cycle distribution, G1 phase (U251cx43-217 cells [8]; day 2): 11.39% | Cell cycle distribution, G2 phase (U251cx43-217 cells [8]; day 2): 88.61% | Cell cycle distribution, S phase (U251cx43-217 cells [8]; day 2): 0% | Colony formation (colonies counted) (U251cx43-216 cells [9]; U251cx43-216, 1 × 10^−7, 3 weeks): 3 +/− 1 | Colony formation (colonies counted) (U251cx43-216 cells [9]; U251cx43-216, 4 × 10^−6, 3 weeks): 2 +/− 1 | Colony formation (colonies counted) (U251cx43-216 cells [9]; U251cx43-216, 4 × 10^−7, 3 weeks): 44 +/− 5 | Colony formation (colonies counted) (U251N23 cells [10]; U251N23, 1 × 10^−7, 3 weeks): 36 +/− 1 | Colony formation (colonies counted) (U251N23 cells [10]; U251N23, 4 × 10^−6, 3 weeks): 9 +/− 1 | Colony formation (colonies counted) (U251N23 cells [10]; U251N23, 4 × 10^−7, 3 weeks): 129 +/− 16 | Percentage of apoptotic cells, Hoechst stain (U251N23 cells [11]): 8.8% and 8.8 +/− 2.4% | IC50 (T98Gcx43-220 cells): 760 nM | IC50 (U251N23 cells [12]): 860 nM | IC50 (U251N2 cells): 800 nM | IC50 (U251cx43-217 cells [13]): 330 nM | IC50 (T98GN28 cells): 1340 nM
